Experimental data published in patent US20230165836A1, “ALPHA-2 ADRENERGIC RECEPTOR AGONISTS FOR THE TREATMENT OF CANCER” (UNIVERSITÉ CATHOLIQUE DE LOUVAIN, priority 2020, published 2023).
“Also recorded” adds a separate entry of the source.

How the values were obtained:
CT26 colon carcinomas = assay: CT26 colon carcinoma model, daily i.p. treatment, tumor volume; format: in vivo, BALB/c mice; settings: for effect of co-administered antagonist on the inhibition of tumor growth by clonidine / effect of co-administered antagonist on the inhibition of tumor growth by guanabenz: CT26; for effect of co-administered antagonist on the inhibition of tumor growth by clonidine: clonidine 5 mg/kg i.p. plus phentolamine 5 mg/kg, propranolol 5 mg/kg or yohimbine 10 mg/kg i.p. daily; for effect of co-administered antagonist on the inhibition of tumor growth by guanabenz: guanabenz 5 mg/kg i.p. plus phentolamine 5 mg/kg or yohimbine 10 mg/kg i.p. daily
Procedure: Mice received a daily intra-peritoneal injection of guanabenz (5 mg/kg) or vehicle (PBS) from the day of randomization (and the day of ACT when applicable) until the day of sacrifice. For the co-administration of adrenergic receptor agonist and antagonist, BALB/c mice bearing CT26 colon carcinomas received daily injections of vehicle control, guanabenz (5 mg/kg, i.p.), or guanabenz (5 mg/kg, i.p.) plus yohimbine (10 mg/kg, i.p.), when the tumor size was around 50 mm^3, until the day of sacrifice.
[…] mice were injected subcutaneously with 2×10^6 CT26 colon tumor cells at an age of 6 to 8 weeks. […] For evaluation of yohimbine on the effect of clonidine and guanabenz, the mice were randomized into different groups when tumors size arrived around 100 mm^3 and received daily injections of guanabenz (5 mg/kg, i.p.), yohimbine (10 mg/kg), a mix of guanabenz (5 mg/kg, i.p.) and yohimbine (10 mg/kg, i.p.), clonidine (5 mg/kg, i.p.), a mix of clonidine (5 mg/kg, i.p.) and yohimbine (10 mg/kg, i.p.) or vehicle control. Tumor size was measured every 2 days and mice were sacrificed when the tumor in control group reached 1,000 mm^3.

[1] = tested on: immune-resistant autochthonous melanoma tumors (TiRP); assay: TiRP melanoma with adoptive cell transfer (ACT) of P1A-specific CD8+T cells; format: in vivo, TiRP mice
Text: TiRP mice have been created by crossing Ink4a/Are^flox/flox mice with mice carrying a transgenic construct controlled by the tyrosinase promoter and driving the expression of H-Ras ^12V and Trapl a which encodes a MAGE-type tumor antigen P1A; the promoter is separated from the coding region by a stop cassette made of a floxed self-deleting CreER (Huijbers et al., 2006, Cancer Res 66, 3278-3286). Those mice were backcrossed to a B10.D2 background and bred to homozygosity. TCRP1A mice heterozygous for the H-2Ld/P1A35-43-specific TCR transgene were kept on the B10.D2;Rag1^−/− background (Shanker et al., 2004, J Immunol 172, 5069-5077). BALB/c mice were used in tumor transplantation experiments. TiRP-derived T429.11 transplanted melanoma model: T429.11 clone was derived from an induced Amela TiRP tumor referred to as T429. It was cloned from the T429 induced melanoma primary tumor line. Two million of T429.11 tumor cells were injected subcutaneously into recipient mice for tumor establishment (Zhu et al., 2017, Nat Commun. 10; 8(1):1404). Adra2a tm1Bkk mice (Strain Name: B6.129-Adra2a tm1Bkk /J, # 004367) were obtained from Jackson Laboratory (Bar Harbor, Me., USA).
(§1) A fresh solution of 40H-Tamoxifen was prepared by dissolving 40H-Tamoxifen (Imaginechem®) in 100% ethanol and mineral oil (ratio 1:9) followed by 30 min sonication, and injected subcutaneously (2 mg/200 uL per mouse) in the neck area of gender-matched 7 weeks old TiRP mice. Tumor appearance was monitored daily and tumors were measured three times/week. Tumor volume (in mm^3) was calculated by the following formula: Volume=width^2×length/2.
For the adoptive cell transfer (ACT), P1A-specific (TCRP1A) CD8+T cells were isolated from spleens and lymph nodes of TCRP1A mice as described hereinabove, and stimulated in vitro by co-culture with irradiated (10,000 rads) L1210.P1A.B7-1 cells (Gajewski et al., 1995, J Immunol 154, 5637-5648) at 1:2 ratio (0.5×10^5 CD8+T cells and 10^5 L1210.P1A.B7-1 cells per well in 48-well plates) in IMDM (GIBCO®) containing 10% fetal bovine serum supplemented with L-arginine (0.55 mM, Merck®), L-asparagine (0.24 mM, Merck®), glutamine (1.5 mM, Merck®), beta-mercaptoethanol (50 μM, Sigma Aldrich®), 50 U mL^−1 penicillin and […] mL^−1 streptomycin (Life Technologies®). Four days later, TCRP1A CD8+T cells were purified on a Lymphoprep gradient (StemCell®) and 10^7 living cells were injected intravenously in 200 μL PBS in TiRP-tumor bearing mice on the day of randomization.
TiRP-tumor bearing mice received adoptive cell transfer (ACT) of 10^7 P1A-specific activated CD8+T cells and daily injections of vehicle control, clonidine (5 mg/kg, i.p.), or clonidine (5 mg/kg, i.p.) combined with phentolamine (5 mg/kg, i.p.), when the tumor size was around 500 mm^3, until the day of sacrifice. Tumor size was monitored every 2 days. Mice were sacrificed when the tumor in control group reached around 2,000 mm^3.
TiRP-tumor bearing mice received adoptive cell transfer (ACT) of 10^7 of P1A-specific activated CD8+T cells. Daily injections of 5 mg/kg i.p. of romifidine or clonidine were thus administered from the day of the ACT, when the tumor size was around 500 mm^3, until the day of sacrifice. As shown on FIGS. 5A-B, following romifidine or clonidine administration, tumor infiltration of CD8+T cells was increased. […]

CT26 colon cancer = CT26 colon cancer tumor growth (FIGS. 15-16); format: in vivo, C57BL/6J mice
Text: Tumor infiltration of CD8+cells evaluated at the day of sacrifice by FACS (FIG. 15B). Tumor growth of CT26 colon cancer in NSG mice treated with PBS (Control), clonidine, clonidine mixed with yohimbine, or yohimbine alone (FIG. 15C). FIGS. 16A-C is a set of curves and histograms showing the tumor growth of CT26 colon cancer in C57BL/6J mice treated with PBS (Control, circles), guanabenz (diamonds), guanabenz mixed with yohimbine (light grey inverted triangles), or yohimbine alone (dark grey inverted triangles) (FIG. 16A); the tumor infiltration of CD8+ cells evaluated at the day of sacrifice by FACS (FIG. 16B); and the tumor growth of CT26 colon cancer in NSG mice treated with PBS (Control), guanabenz, guanabenz mixed with yohimbine, or yohimbine alone (FIG. 16C). […] For evaluation of yohimbine on the effect of clonidine and guanabenz, the mice were randomized into different groups when tumors size arrived around 100 mm^3 and received daily injections of guanabenz (5 mg/kg, i.p.), yohimbine (10 mg/kg), a mix of guanabenz (5 mg/kg, i.p.) and yohimbine (10 mg/kg, i.p.), clonidine (5 mg/kg, i.p.), a mix of clonidine (5 mg/kg, i.p.) and yohimbine (10 mg/kg, i.p.) or vehicle control.

JAK2V617F allele burden = assay: Myelofibrosis by JAK2V617F bone marrow transplantation, allele burden; format: in vivo, C57BL/6 mice; settings: 5 mg/kg i.p. daily; Day 7 versus Day 0
Procedure: Bone marrow from primary CD45.2 JAK2V617F mice was mixed 1:1 with CD45.1 C57BL/6 marrow and transplanted into lethally irradiated CD45.2 C57BL/6 recipients. 1 month after bone marrow transplantation, mice were randomized into three groups and received daily i.p injection of 5 mg/kg of clonidine, guanabenz or PBS. Blood was taken on Day 0 (Just before the treatment) and on Day 7 (7 days after the treatment). The allele burden was assessed as a fraction of CD45.2 cells along total CD45 cells in the blood of mice.
Decreased JAK2V617F allele burden is a golden standard method to evaluate the disease progression of MF.

[2] = tested on: JAK2V617F mutated bone marrow; assay: Myelofibrosis by JAK2V617F bone marrow transplantation, platelet counts; format: in vivo, mice; settings: 5 mg/kg daily for three weeks
Procedure: Murine femurs and tibias from JAK2V617F mutant mice were first harvested and cleaned thoroughly. Marrow cells were flushed into PBS with 2% fetal bovine serum using a 25G needle and syringe. Resulting cell suspensions were then filtered through a 40 uM cell strainer. Recipient mice were irradiated with two doses of 500 rad 4 h apart. 1 million of donor cells were injected into wild-type recipients by standard intravenous injection using a 27G insulin syringe. One week after bone marrow transplantation, mice were treated with guanabenz or clonidine at a dose of 5 mg/kg daily for three weeks. After three weeks of treatment, mice were dissected and peripheral blood was drawn by cardiac puncture, the platelet concentration was measured by Cell Counter Analyzer MS9-5V.

[3] = tested on: human LS411N ovarian cancer; assay: LS411N xenograft with adoptive transfer of allogeneic human PBMC; format: in vivo
Procedure: (§2) Adoptive transfer of human PBMC was performed when tumor size reaches 100 mm^3.

MC38 colon carcinomas [4] = assay: MC38 colon carcinoma in wildtype mice; format: in vivo, C57BL/6 Wildtype mice; settings: 5 mg/kg, i.p. daily from tumor size around 50 mm^3
Procedure: (§3) C57BL/6 Wildtype or C57BL/6 Adra2a KO mice bearing MC38 colon carcinomas received daily injections of vehicle control (PBS), clonidine (5 mg/kg, i.p.) or guanabenz (5 mg/kg, i.p.), when the tumor size was around 50 mm^3, until the day of sacrifice.

MC38 colon carcinomas [5] = assay: MC38 colon carcinoma in Adra2a KO mice; format: in vivo, C57BL/6 Adra2a KO mice; settings: 5 mg/kg, i.p. daily from tumor size around 50 mm^3
Procedure: as §3

prostate cancer = assay: Xenograft model of prostate cancer in NSG mice treated with PBMC; format: in vivo
B16F1 melanoma [6] = assay: B16F1 melanoma in immune competent mice; format: in vivo; settings: B16F1 in immune competent C57BL/6 mice; 5 mg/kg, i.p.; monotherapy
Procedure: (§4) FIGS. 10A-B is a set of curves showing the tumor growth of B16F1 melanoma in C57BL/6J (FIG. 10A) or immunodeficient NSG mice (FIG. 10B) treated with PBS (Control, curve 1) or clonidine (5 mg/kg, i.p., curve 2).
(§5) FIGS. 11A-B is a set of curves showing the tumor growth of B16F1 melanoma in C57BL/6J (FIG. 11A) or NSG mice (FIG. 11B) treated with PBS (Control, curve 1) or guanfacine (5 mg/kg, i.p., curve 2).

B16F1 melanoma [7] = assay: B16F1 melanoma in immune deficient mice; format: in vivo; settings: B16F1 in immune deficient NSG mice; 5 mg/kg, i.p.
Procedure: as §4, §5

TiRP melanoma = TiRP melanoma model, monotherapy; format: in vivo; settings: TiRP+/+ mice; 5 mg/kg, i.p. daily from tumor size around 250 mm^3
Procedure: FIGS. 14A-B is a set of curves showing the tumor growth (melanoma) in TiRP+/+ mice that have received daily injections of guanfacine (5 mg/kg, i.p. triangles; FIG. 14A), clonidine (5 mg/kg, i.p., circles; FIG. 14B), or control (PBS, i.p., squares), when the tumor size was around 250 mm^3 until sacrifice.
TiRP mice have been created by crossing Ink4a/Are^flox/flox mice with mice carrying a transgenic construct controlled by the tyrosinase promoter and driving the expression of H-Ras ^12V and Trapl a which encodes a MAGE-type tumor antigen P1A; the promoter is separated from the coding region by a stop cassette made of a floxed self-deleting CreER (Huijbers et al., 2006, Cancer Res 66, 3278-3286). Those mice were backcrossed to a B10.D2 background and bred to homozygosity. TCRP1A mice heterozygous for the H-2Ld/P1A35-43-specific TCR transgene were kept on the B10.D2;Rag1^−/− background (Shanker et al., 2004, J Immunol 172, 5069-5077). […]
as §1

human LS411N cancer = assay: LS411N xenograft with adoptive transfer of allogeneic human PBMC; format: in vivo; settings: PBMC, clonidine mixed with yohimbine
Procedure: as §2

Structure (SMILES): Cc1ccc(N(CC2=NCCN2)c2cccc(O)c2)cc1 [Phentolamine]
- effect of co-administered antagonist on the inhibition of tumor growth by clonidine (CT26 colon carcinomas): attenuated the inhibitory effect
- effect of co-administered antagonist on the inhibition of tumor growth by guanabenz (CT26 colon carcinomas): attenuated the inhibitory effect
- effect of phentolamine on the inhibition of TiRP tumor growth by clonidine ([1]; ACT, clonidine 5 mg/kg i.p. plus phentolamine 5 mg/kg i.p. daily): attenuated the inhibitory effect of clonidine on TiRP tumor growth

Structure (SMILES): N=C(N)N/N=C/c1c(Cl)cccc1Cl [guanabenz]
- tumor growth (tumor volume) (CT26 colon carcinomas; CT26 in BALB/c mice, 5 mg/kg, i.p. daily from tumor size around 50 mm^3 until sacrifice): promotes a decrease of the tumor volume; also recorded: strongly inhibited CT26 tumor growth
- tumor growth (CT26 colon cancer; CT26 colon cancer, FIGS. 15A, 16A): inhibited CT26 colon cancer tumor growth
- JAK2V617F allele burden (CD45.2 cells among total CD45 cells in blood) (JAK2V617F allele burden): decrease of JAK2V617F allele burden in a number of mice
- platelet (PLT) counts [2]: significantly reduces the platelet (PLT) counts; also recorded: significantly reduced the high platelet counts
- tumor growth ([3]; human allogenic PBMC transferred at tumor size 100 mm^3): significant tumor inhibition
- tumor growth (MC38 colon carcinomas [4]): significant tumor inhibition
- tumor inhibition in Adra2a KO mice (MC38 colon carcinomas [5]): almost completely attenuated
- tumor growth (prostate cancer): strong tumor inhibition

Structure (SMILES): N=C(N)NC(=O)Cc1c(Cl)cccc1Cl [guanfacine]
- tumor growth, combined with ACT ([1]; TiRP mice, ACT of 10^7 P1A-specific CD8+T cells, 5 mg/kg i.p. daily): inhibited the tumor growth
- tumor growth (B16F1 melanoma [6]): inhibited tumor growth
- tumor growth (B16F1 melanoma [7]): No tumor inhibition was found
- tumor volume, monotherapy (TiRP melanoma): efficient in decreasing the tumor volume

Structure (SMILES): Fc1cccc(Br)c1NC1=NCCN1 [romifidine]
- tumor infiltration of CD8+T cells (%CD8+T cells among total CD45+T cells) ([1]; TiRP mice with ACT, 5 mg/kg i.p. daily from day of ACT, tumor size around 500 mm^3, 5 mg/kg): increase of tumor infiltration of CD8+T cells; also recorded: increased

Structure (SMILES): COC(=O)[C@@H]1[C@H]2C[C@H]3c4[nH]c5ccccc5c4CCN3C[C@@H]2CC[C@@H]1O [yohimbine]
- effect of co-administered antagonist on the inhibition of tumor growth by clonidine (CT26 colon carcinomas): strongly attenuated; also recorded: reduced the inhibition of tumor growth
- effect of co-administered antagonist on the inhibition of tumor growth by guanabenz (CT26 colon carcinomas): strongly attenuated; also recorded: reduced the inhibition of tumor growth
- effect of yohimbine on the inhibition of tumor growth by clonidine (CT26 colon cancer; CT26, clonidine mixed with yohimbine): strongly attenuated
- effect of yohimbine on the inhibition of tumor growth by guanabenz (CT26 colon cancer; CT26, guanabenz mixed with yohimbine): strongly attenuated
- effect of yohimbine on the tumor inhibition by clonidine (human LS411N cancer): strongly attenuated
- effect of yohimbine on the tumor inhibition by guanabenz ([3]; PBMC, guanabenz mixed with yohimbine): strongly attenuated
